Measurements from ChEMBL document CHEMBL1770096, “Structure-activity relationships of trans-substituted-propenoic acid derivatives on the nicotinic acid receptor HCA2 (GPR109A)” (Bioorg Med Chem Lett, 2011).

Biological target: Hydroxycarboxylic acid receptor 2 (Homo sapiens) (UniProt Q8TDS4)
Assay: Displacement of [3H]nicotinic acid from human GPR109a receptor expressed in human HEK293T cells at 10 uM by liquid scintillation counting
Format: cell-based
Conditions: HEK-293T

Sequence of Hydroxycarboxylic acid receptor 2 (Homo sapiens) (Q8TDS4 whole entry): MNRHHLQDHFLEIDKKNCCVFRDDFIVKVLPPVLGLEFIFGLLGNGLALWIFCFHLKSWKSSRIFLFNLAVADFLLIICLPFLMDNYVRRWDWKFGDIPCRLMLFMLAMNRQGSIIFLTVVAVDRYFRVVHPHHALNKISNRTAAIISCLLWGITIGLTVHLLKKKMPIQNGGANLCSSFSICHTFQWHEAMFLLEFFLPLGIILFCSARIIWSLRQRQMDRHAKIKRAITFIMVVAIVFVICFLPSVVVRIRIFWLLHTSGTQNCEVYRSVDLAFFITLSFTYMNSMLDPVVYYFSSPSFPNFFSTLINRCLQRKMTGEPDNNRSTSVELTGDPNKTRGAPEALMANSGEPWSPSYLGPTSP

SMILES	Activity [%]
COc1cc(/C=C/C(=O)O)ccc1O	0
O=C(O)/C=C/C(=O)O	10
